In the oligonucleotide strings, read from the 5' end, every base follows the letter of its sugar. An asterisk marks phosphorothioate; unmarked linkages are phosphodiester. Other units and linkages are bracketed, terminal groups are in braces. A string of capitals states the bases alone. e = 2'-O-(2-methoxyethyl) (MOE); [5mC] = 5-methylcytosine; d = 2'-deoxy (DNA)

The test system of one data set is human Factor 7 mRNA. In words: Antisense inhibition of human Factor 7 mRNA in HepB3 cells, lipofectin, 50 nM, real-time RT-PCR. In kind it is cell-based. As to conditions: Example 1; HepB3 cells, lipofectin, 50 nM, ~24 h, relative to untreated control cells. In a few lines:
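Percent inhibition of Factor 7 mRNA, relative to untreated control, comes from real-time RT-PCR with RIBOGREEN normalization, using primer probe set RTS 2927 in some runs. RNA was taken roughly 24 h after lipofectin delivery of 50 nM oligonucleotide into HepB3 cells.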
With “407925 (antisense eG*eA*eA*eT*eA*dT*dA*dT*dG*dG*dG*dA*dT*dT*dT*eG*eG*eT*eG*e[5mC]) [compound 407925]”, the “% Inhibition (human Factor 7 mRNA)” value is given as 64%.
Same read-out and setting: in the case of “407930 (antisense e[5mC]*eA*eA*eT*eG*dA*dA*dG*dG*d[5mC]*dA*dG*dA*dG*d[5mC]*eA*eG*e[5mC]*eA*eG) [compound 407930]” it was 70%.
Take “407640 (antisense eG*e[5mC]*eA*eT*eG*dA*dG*d[5mC]*dT*dT*dT*dT*dG*d[5mC]*dA*eG*e[5mC]*e[5mC]*eA*e[5mC]) [compound 407640]”: the “% Inhibition (human Factor 7 mRNA)” value worked out at 79%.
On the same count and under the same terms, in the case of “407957 (antisense eG*eG*e[5mC]*e[5mC]*eT*dG*dG*dG*dA*dA*d[5mC]*dT*dT*dG*d[5mC]*eA*eT*eT*eT*eA) [compound 407957]” it was 52%.
Same read-out and setting: in the case of “407612 (antisense eA*eG*eA*eT*e[5mC]*dA*dG*d[5mC]*dT*dG*dG*dT*d[5mC]*dA*dT*e[5mC]*e[5mC]*eT*eT*eG) [compound 407612]” it was 82%.
In the case of “407659 (antisense eG*eA*eT*eG*eG*d[5mC]*dA*dT*d[5mC]*dG*dA*dG*dT*d[5mC]*d[5mC]*eA*e[5mC]*eT*e[5mC]*eT) [compound 407659]”, the “% Inhibition (human Factor 7 mRNA)” value was determined as 55%.
The same measure, in the same setting: in the case of “407887 (antisense e[5mC]*e[5mC]*eA*eG*eG*d[5mC]*dA*dG*d[5mC]*d[5mC]*d[5mC]*dT*dG*dA*dA*eG*e[5mC]*e[5mC]*e[5mC]*eA) [compound 407887]” it was 78%.
For the substance “407652 (antisense eT*eG*eG*eG*eA*dG*d[5mC]*dT*dA*d[5mC]*dA*dG*d[5mC]*d[5mC]*dT*e[5mC]*eA*eA*eA*e[5mC]) [compound 407652]”, the “% Inhibition (human Factor 7 mRNA)” value is 30%.
Same read-out and setting: in the case of “407915 (antisense eG*eT*eT*eG*e[5mC]*dG*d[5mC]*dA*dG*d[5mC]*d[5mC]*d[5mC]*dT*dG*dG*e[5mC]*e[5mC]*e[5mC]*e[5mC]*eA) [compound 407915]” it was 83%.

The same data set, now with this note: Example 4; HepB3 cells, lipofectin, 50 nM, ~24 h, relative to untreated control.
For the substance “422275 (antisense eG*eT*dT*dA*d[5mC]*dT*dG*dA*dG*d[5mC]*dG*d[5mC]*dG*dG*dA*eA*eG*eA*eA*eG) [compound 422275]”, the “% Inhibition (human Factor 7 mRNA)” value is recorded as 42%.

The data set is the same for the next values; noted with them: Example 6 microwalk, nucleobases 15098 to 15122 of SEQ ID NO: 1; HepB3, lipofectin, 50 nM, ~24 h.
Turning to “422289 (antisense eG*eA*d[5mC]*dA*dG*d[5mC]*dA*d[5mC]*dA*d[5mC]*dA*dT*dG*dG*dA*eG*eT*e[5mC]*eA*eG) [compound 422289]”, the “% Inhibition (human Factor 7 mRNA)” value turned out to be 34%.
Consider “422287 (antisense e[5mC]*eA*dG*d[5mC]*dA*d[5mC]*dA*d[5mC]*dA*dT*dG*dG*dA*dG*dT*e[5mC]*eA*eG*e[5mC]*eA) [compound 422287]”, for which the “% Inhibition (human Factor 7 mRNA)” value is reported as 41%.

The same data set, now with this note: HepB3 cells, lipofectin, 50 nM antisense oligonucleotide, approximately 24 hours, primer probe set RTS 2927, relative to untreated control.
Consider “416450 (antisense eG*eG*eT*eT*eT*dG*d[5mC]*dT*dG*dG*d[5mC]*dA*dT*dT*dT*e[5mC]*eT*eT*eT*eT) [compound 416450]”, for which the “% Inhibition of human Factor 7 mRNA levels” value worked out at 49%.
Same read-out and setting: next, “416544 (antisense eA*eT*e[5mC]*e[5mC]*e[5mC]*dA*dT*dT*dT*dT*d[5mC]*d[5mC]*d[5mC]*dA*dG*eG*eA*eG*e[5mC]*e[5mC]) [compound 416544]”: 58%.
The same measure, in the same setting: next, “416471 (antisense eT*eG*eA*eG*e[5mC]*dT*dT*dT*dT*dG*d[5mC]*dA*dG*d[5mC]*d[5mC]*eA*e[5mC]*eT*e[5mC]*eG) [compound 416471]”: 62%; “416466 (antisense eT*eG*eT*eG*eG*dG*d[5mC]*d[5mC]*dT*d[5mC]*d[5mC]*dA*d[5mC]*dT*dG*eT*e[5mC]*e[5mC]*e[5mC]*e[5mC]) [compound 416466]”: 57%.
Consider “416550 (antisense eT*eG*eG*e[5mC]*eT*dG*dG*d[5mC]*dT*dG*dA*dG*dG*dA*dG*eA*e[5mC]*eA*eA*eT) [compound 416550]”, for which the “% Inhibition of human Factor 7 mRNA levels” value is on record as 55%.
As to “416565 (antisense e[5mC]*eA*eG*eG*eA*dT*dG*d[5mC]*dT*d[5mC]*dA*dT*dG*dG*d[5mC]*eA*eG*eA*e[5mC]*eA) [compound 416565]”, the “% Inhibition of human Factor 7 mRNA levels” value is 0%.
The same measure, in the same setting: in the case of “416551 (antisense e[5mC]*eA*eG*eA*eA*dA*d[5mC]*dA*d[5mC]*d[5mC]*d[5mC]*dA*dT*d[5mC]*d[5mC]*eT*e[5mC]*eT*eG*eA) [compound 416551]” it was 19%; in that of “416563 (antisense eG*e[5mC]*e[5mC]*eT*eG*d[5mC]*dA*dT*dT*dT*d[5mC]*d[5mC]*d[5mC]*dA*dT*eT*eG*eG*e[5mC]*eA) [compound 416563]”, 0%.
Regarding “416566 (antisense eG*eT*eT*eT*eG*dT*dA*dT*dG*dG*dA*dG*dA*dG*dA*e[5mC]*e[5mC]*eA*eA*eT) [compound 416566]”, the “% Inhibition of human Factor 7 mRNA levels” value is reported as 0%.
Same read-out and setting: in the case of “416512 (antisense eG*eA*e[5mC]*eG*eA*d[5mC]*d[5mC]*dT*dT*dT*dG*d[5mC]*dT*dG*dG*eG*eA*eG*eG*eA) [compound 416512]” it was 43%.
As to “416504 (antisense eT*e[5mC]*eA*eG*eA*dA*dA*dA*dG*d[5mC]*dT*d[5mC]*dT*d[5mC]*dA*eA*eG*eA*eA*e[5mC]) [compound 416504]”, the “% Inhibition of human Factor 7 mRNA levels” value came out at 0%.
On to “416564 (antisense eG*e[5mC]*e[5mC]*eA*e[5mC]*dT*d[5mC]*dA*d[5mC]*dA*dG*dA*dA*dA*dG*e[5mC]*eT*eG*eG*eA) [compound 416564]”, for which the “% Inhibition of human Factor 7 mRNA levels” value is 0%.
The same measure, in the same setting: in the case of “416506 (antisense e[5mC]*eT*eT*eT*eA*dA*dA*dA*dT*d[5mC]*dA*dG*dT*dT*dT*e[5mC]*eA*e[5mC]*eA*e[5mC]) [compound 416506]” it was 18%; in that of “416548 (antisense eA*eG*eG*eT*eG*dA*dA*dT*dG*dA*dA*dA*dT*dT*d[5mC]*eT*eA*e[5mC]*e[5mC]*eT) [compound 416548]”, 29%; in that of “416460 (antisense e[5mC]*eA*e[5mC]*e[5mC]*eA*d[5mC]*dA*dT*dG*dG*dT*d[5mC]*dA*dG*dT*eG*eA*eG*eG*eA) [compound 416460]”, 49%.

Staying with this data set, now noted: HepB3 cells; gapmers (5-10-5, 3-14-3, 2-13-5 MOE) targeted to nucleobases 4868 to 4899 of SEQ ID NO: 1.
For the substance “422302 (antisense eA*eG*dG*dA*dG*d[5mC]*d[5mC]*d[5mC]*dG*dA*dG*dT*dT*d[5mC]*dT*eG*e[5mC]*eA*eG*eG) [compound 422302]”, the “% Inhibition of human Factor 7 mRNA levels” value came out at 67%.
Same read-out and setting: in the case of “422297 (antisense e[5mC]*e[5mC]*d[5mC]*dG*dA*dG*dT*dT*d[5mC]*dT*dG*d[5mC]*dA*dG*dG*eA*eG*e[5mC]*eG*eG) [compound 422297]” it was 63%; in that of “422290 (antisense eT*e[5mC]*dT*dG*d[5mC]*dA*dG*dG*dA*dG*d[5mC]*dG*dG*d[5mC]*d[5mC]*eT*eA*eA*eA*eT) [compound 422290]”, 50%.
Consider “422219 (antisense e[5mC]*e[5mC]*eG*dA*dG*dT*dT*d[5mC]*dT*dG*d[5mC]*dA*dG*dG*dA*dG*d[5mC]*eG*eG*e[5mC]) [compound 422219]”, for which the “% Inhibition of human Factor 7 mRNA levels” value is given as 65%.

Staying with this data set, now noted: HepB3 cells; gapmers targeted to nucleobases 11830 to 11869 of SEQ ID NO: 1 (Table 9).
As for “422157 (antisense eT*eG*eG*dT*d[5mC]*dA*dG*dG*dG*d[5mC]*dT*dG*dG*dT*dT*dT*dT*eG*eG*eA) [compound 422157]”, the “% Inhibition of human Factor 7 mRNA levels” value came out at 49%.
Same read-out and setting: next, “422248 (antisense eG*eG*d[5mC]*dT*dG*dA*dG*dG*dA*dG*dA*d[5mC]*dA*dA*dT*eG*eG*eT*e[5mC]*eA) [compound 422248]”: 60%; “422093 (antisense eA*eA*eT*eG*eG*dT*d[5mC]*dA*dG*dG*dG*d[5mC]*dT*dG*dG*eT*eT*eT*eT*eG) [compound 422093]”: 42%.
For “422156 (antisense eG*eG*eT*d[5mC]*dA*dG*dG*dG*d[5mC]*dT*dG*dG*dT*dT*dT*dT*dG*eG*eA*eG) [compound 422156]”, the “% Inhibition of human Factor 7 mRNA levels” value was 38%.
The same measure, in the same setting: next, “422101 (antisense eT*eG*eA*eG*eG*dA*dG*dA*d[5mC]*dA*dA*dT*dG*dG*dT*e[5mC]*eA*eG*eG*eG) [compound 422101]”: 42%; “422162 (antisense eG*eA*e[5mC]*dA*dA*dT*dG*dG*dT*d[5mC]*dA*dG*dG*dG*d[5mC]*dT*dG*eG*eT*eT) [compound 422162]”: 59%.

The same data set, now with this note: HepB3 cells; gapmers targeted to nucleobases 13760 to 13789 of SEQ ID NO: 1 (Table 10).
As for “422116 (antisense eT*eG*e[5mC]*eG*e[5mC]*d[5mC]*dA*d[5mC]*d[5mC]*d[5mC]*dG*d[5mC]*d[5mC]*dG*dG*e[5mC]*eT*e[5mC]*eT*eG) [compound 422116]”, the “% Inhibition of human Factor 7 mRNA levels” value amounted to 52%.
Take “422108 (antisense e[5mC]*e[5mC]*eG*e[5mC]*e[5mC]*dG*dG*d[5mC]*dT*d[5mC]*dT*dG*d[5mC]*dT*d[5mC]*eA*eT*e[5mC]*e[5mC]*e[5mC]) [compound 422108]”: the “% Inhibition of human Factor 7 mRNA levels” value is given as 69%.

Staying with this data set, now noted: HepB3 cells; gapmers targeted to nucleobases 14707 to 14732 of SEQ ID NO: 1 (Table 11).
As for “422200 (antisense e[5mC]*e[5mC]*eT*dG*dA*dG*dG*d[5mC]*d[5mC]*dA*dG*d[5mC]*dA*dG*dA*dT*d[5mC]*eA*e[5mC]*eG) [compound 422200]”, the “% Inhibition of human Factor 7 mRNA levels” value is recorded as 58%.
Same read-out and setting: in the case of “422282 (antisense eA*eG*d[5mC]*dA*dG*d[5mC]*d[5mC]*dT*dG*dA*dG*dG*d[5mC]*d[5mC]*dA*eG*e[5mC]*eA*eG*eA) [compound 422282]” it was 48%.
